Data taken from US11566030B2, “Substituted 2,6-dihydropyrrolo[3,4-c]pyrazoles as pyruvate kinase activators” (priority 2021, dated 2023).
Where two headings read alike, the source gives them in different places.

Target: T1, Human pyruvate kinase R (PKR) (Homo sapiens, UniProt P30613)
T1 construct: Human pyruvate kinase R (PKR), residues 14-574; 6xHis-8xArg-SUMO (N, cleaved yes); host or cells: E. coli
Test: Biochemical assay for activation of pyruvate kinase R (Kinase-Glo luminescence, ATP generation)
Conditions: for Emax: read-out: PKR % activation, maximal activation level achieved with each compound relative to the activation level achieved by AG-348 @ 10 μM
In short: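 Recombinant human PKR (residues 14-574) expressed in E. coli with His-Arg-SUMO tag, tag cleaved, purified by Ni-NTA, anion exchange and size exclusion. Activation read as ATP generation by Kinase-Glo luminescence.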

[1] = PKR AC50 (nM), 0.1 nM PKR, 0.3 mM ADP, 0.1 mM PEP, 1% DMSO

T1 sequence (P30613 14-574): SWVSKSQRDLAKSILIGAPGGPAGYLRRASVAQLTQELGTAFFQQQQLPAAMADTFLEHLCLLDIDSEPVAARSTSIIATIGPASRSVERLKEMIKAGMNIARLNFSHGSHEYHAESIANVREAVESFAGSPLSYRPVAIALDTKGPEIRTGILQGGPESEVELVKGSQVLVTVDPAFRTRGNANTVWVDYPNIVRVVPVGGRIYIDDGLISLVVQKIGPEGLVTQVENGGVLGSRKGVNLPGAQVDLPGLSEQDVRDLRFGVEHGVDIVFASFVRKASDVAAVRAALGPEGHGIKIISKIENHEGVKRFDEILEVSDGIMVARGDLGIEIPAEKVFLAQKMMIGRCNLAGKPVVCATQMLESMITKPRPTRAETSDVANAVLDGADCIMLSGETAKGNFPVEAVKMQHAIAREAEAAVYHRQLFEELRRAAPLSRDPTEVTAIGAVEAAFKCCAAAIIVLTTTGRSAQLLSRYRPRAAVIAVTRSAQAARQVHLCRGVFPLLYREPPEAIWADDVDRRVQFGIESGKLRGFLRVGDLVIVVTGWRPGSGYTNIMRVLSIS

Compound | AC50 [1] | Emax | PKR % activation (maximal activation level achieved with each compound relative to the activation level achieved by AG-348 @ 10 μM) | AC50
O=C([C@H](CO)c1ccccc1F)N1Cc2cn(S(=O)(=O)c3cnn(CC(F)(F)F)c3)nc2C1 [Compound 3, (2S)-2-(2-fluorophenyl)-3-hydroxy-1-(2-{[1-(2,2,2-trifluoroethyl)-1H-pyrazol-4-yl]sulfonyl}-2H,4H,5H,6H-pyrrolo[3,4-c]pyrazol-5-yl)propan-1-one] | 7.1 nM | 108% |  | 
O=C([C@H](OCCO)c1ccccc1F)N1Cc2cn(S(=O)(=O)c3ccn(CC(F)(F)F)n3)nc2C1 (single isomer, unassigned) [Compound 85] | > 10000 nM |  | 103% | 
O=C([C@H](CO)c1ccccc1F)N1Cc2cn(S(=O)(=O)c3ccn(CC(F)F)n3)nc2C1 [Compound 12, (2S)-1-(2-{[1-(2,2-difluoroethyl)-1H-pyrazol-3-yl]sulfonyl}-2H,4H,5H,6H-pyrrolo[3,4-c]pyrazol-5-yl)-2-(2-fluorophenyl)-3-hydroxypropan-1-one] | 6.9 nM | 121% |  | 
O=C([C@H](CO)c1ccccc1)N1Cc2cn(S(=O)(=O)c3c[nH]c(C(F)(F)F)c3)nc2C1 [Compound 118, (2S)-3-hydroxy-2-phenyl-1-(2-{[5-(trifluoromethyl)-1H-pyrrol-3-yl]sulfonyl}-2H,4H,5H,6H-pyrrolo[3,4-c]pyrazol-5-yl)propan-1-one] |  | 13% |  | 160 nM
O=C([C@@H](CO)c1ccccc1)N1Cc2cn(S(=O)(=O)c3cnn(CC(F)F)c3)nc2C1 [Compound 122, (2R)-1-(2-{[1-(2,2-difluoroethyl)-1H-pyrazol-4-yl]sulfonyl}-2H,4H,5H,6H-pyrrolo[3,4-c]pyrazol-5-yl)-3-hydroxy-2-phenylpropan-1-one] | 240 nM | 120% |  | 
O=C([C@H](CO)c1ccccc1)N1Cc2cn(S(=O)(=O)c3ccc(-c4ccccc4)s3)nc2C1 [Compound 18, (2S)-3-hydroxy-2-phenyl-1-{2-[(5-phenylthiophen-2-yl)sulfonyl]-2H,4H,5H,6H-pyrrolo[3,4-c]pyrazol-5-yl}propan-1-one] | 72 nM | 70% |  | 
O=C([C@H](CO)c1ccccc1)N1Cc2cn(S(=O)(=O)c3cnn(C4CCOC4)c3)nc2C1 (stereo partly drawn) [Compound 113, (2S)-3-hydroxy-1-(2-{[1-(oxolan-3-yl)-1H-pyrazol-4-yl]sulfonyl}-2H,4H,5H,6H-pyrrolo[3,4-c]pyrazol-5-yl)-2-phenylpropan-1-one] |  | 47% |  | 24 nM
O=C([C@H](CO)c1ccccc1)N1Cc2cn(S(=O)(=O)c3cnn(CC(F)(F)F)c3)nc2C1 [Compound 83, (2S)-3-hydroxy-2-phenyl-1-{2-[1-(2,2,2-trifluoroethyl)pyrazol-4-ylsulfonyl]-4H,6H-pyrrolo[3,4-c]pyrazol-5-yl}propan-1-one] |  | 69% |  | 15 nM
Cc1nc(OCC(F)(F)F)sc1S(=O)(=O)n1cc2c(n1)CN(C(=O)[C@H](CO)c1ccccc1)C2 [Compound 22, (2S)-3-hydroxy-1-(2-{[4-methyl-2-(2,2,2-trifluoroethoxy)-1,3-thiazol-5-yl]sulfonyl}-2H,4H,5H,6H-pyrrolo[3,4-c]pyrazol-5-yl)-2-phenylpropan-1-one] | 1000 nM | 0% |  | 
Cc1cn(CC(F)(F)F)nc1S(=O)(=O)n1cc2c(n1)CN(C(=O)[C@@H](CO)c1ccccc1F)C2 [Compound 69, (2R)-2-(2-fluorophenyl)-3-hydroxy-1-{2-[4-methyl-1-(2,2,2-trifluoroethyl)pyrazol-3-ylsulfonyl]-4H,6H-pyrrolo[3,4-c]pyrazol-5-yl}propan-1-one] | 15 nM | 4% |  | 
O=C([C@@H](O)c1ncccc1F)N1Cc2cn(S(=O)(=O)c3cnn(CC(F)F)c3)nc2C1 (single isomer, unassigned) [Compound 39] |  | 90% |  | 120 nM
O=C([C@H](CO)c1cccc(F)c1F)N1Cc2cn(S(=O)(=O)c3cnn(CC(F)F)c3)nc2C1 [Compound 53, (2S)-1-{2-[1-(2,2-difluoroethyl)pyrazol-4-ylsulfonyl]-4H,6H-pyrrolo[3,4-c]pyrazol-5-yl}-2-(2,3-difluorophenyl)-3-hydroxypropan-1-one] | 5.2 nM | 100% |  | 
Cc1cn(CC(F)F)nc1S(=O)(=O)n1cc2c(n1)CN(C(=O)[C@H](CO)c1ccccc1)C2 [Compound 76, (2S)-1-{2-[1-(2,2-difluoroethyl)-4-methylpyrazol-3-ylsulfonyl]-4H,6H-pyrrolo[3,4-c]pyrazol-5-yl}-3-hydroxy-2-phenylpropan-1-one] | 3800 nM | 3% |  | 
CC(C)n1cc(S(=O)(=O)n2cc3c(n2)CN(C(=O)[C@H](CO)c2ccccc2F)C3)cn1 [Compound 57, (2S)-2-(2-fluorophenyl)-3-hydroxy-1-[2-(1-isopropylpyrazol-4-ylsulfonyl)-4H,6H-pyrrolo[3,4-c]pyrazol-5-yl]propan-1-one] | 6.7 nM | 50% |  | 
COCCn1cc(S(=O)(=O)n2cc3c(n2)CN(C(=O)[C@@H](CO)c2ccccc2F)C3)cn1 [Compound 61, (2R)-2-(2-fluorophenyl)-3-hydroxy-1-{2-[1-(2-methoxyethyl)pyrazol-4-ylsulfonyl]-4H,6H-pyrrolo[3,4-c]pyrazol-5-yl}propan-1-one] | 3000 nM | 49% |  | 
O=C([C@H](CO)c1ccccc1Cl)N1Cc2cn(S(=O)(=O)c3ncn(CC(F)F)n3)nc2C1 [Compound 107, (2S)-2-(2-chlorophenyl)-1-{2-[1-(2,2-difluoroethyl)-1,2,4-triazol-3-ylsulfonyl]-4H,6H-pyrrolo[3,4-c]pyrazol-5-yl}-3-hydroxypropan-1-one] | 53 nM | 89% |  | 
Cc1nn(CC(F)F)c(C)c1S(=O)(=O)n1cc2c(n1)CN(C(=O)[C@@H](CO)c1ccccc1)C2 [Compound 88, (2R)-1-[2-[1-(2,2-difluoroethyl)-3,5-dimethylpyrazol-4-ylsulfonyl]-4H,6H-pyrrolo[3,4-c]pyrazol-5-yl]-3-hydroxy-2-phenylpropan-1-one] | 680 nM | 0% |  | 
C[C@@H](O)[C@@H](C(=O)N1Cc2cn(S(=O)(=O)c3cnn(CC(F)F)c3)nc2C1)c1ccccc1 [Compound 7, (2S,3R)-1-(2-{[1-(2,2-difluoroethyl)-1H-pyrazol-4-yl]sulfonyl}-2H,4H,5H,6H-pyrrolo[3,4-c]pyrazol-5-yl)-3-hydroxy-2-phenylbutan-1-one] |  | 102% |  | 17 nM
O=C([C@H](CO)c1ncccc1F)N1Cc2cn(S(=O)(=O)c3ccn(CC(F)F)n3)nc2C1 (single isomer, unassigned) [Compound 31] |  | 45% |  | 3600 nM
COC(C(=O)N1Cc2cn(S(=O)(=O)c3cnn(CC(F)F)c3)nc2C1)c1ccccc1F (centres unmarked) [Compound 114] | 320 nM | 134% |  | 
O=C([C@@H](CO)c1ccccc1Cl)N1Cc2cn(S(=O)(=O)c3cnn(CCF)c3)nc2C1 [Compound 91, (2R)-2-(2-chlorophenyl)-1-{2-[1-(2-fluoroethyl)pyrazol-4-ylsulfonyl]-4H,6H-pyrrolo[3,4-c]pyrazol-5-yl}-3-hydroxypropan-1-one] | 91 nM | 164% |  | 
Cc1cn(CC(F)F)nc1S(=O)(=O)n1cc2c(n1)CN(C(=O)[C@@H](CO)c1ccccc1)C2 [Compound 77, (2R)-1-{2-[1-(2,2-difluoroethyl)-4-methylpyrazol-3-ylsulfonyl]-4H,6H-pyrrolo[3,4-c]pyrazol-5-yl}-3-hydroxy-2-phenylpropan-1-one] | 0.51 nM | 16% |  | 
Cc1c(S(=O)(=O)n2cc3c(n2)CN(C(=O)[C@H](CO)c2ccccc2Cl)C3)cnn1CCF [Compound 98, (2S)-2-(2-chlorophenyl)-1-{2-[1-(2-fluoroethyl)-5-methylpyrazol-4-ylsulfonyl]-4H,6H-pyrrolo[3,4-c]pyrazol-5-yl}-3-hydroxypropan-1-one] | 9.1 nM | 117% |  | 
CCn1cc(S(=O)(=O)n2cc3c(n2)CN(C(=O)[C@H](CO)c2ccccc2)C3)c(C(F)(F)F)n1 [Compound 94, (2S)-1-{2-[1-ethyl-3-(trifluoromethyl)pyrazol-4-ylsulfonyl]-4H,6H-pyrrolo[3,4-c]pyrazol-5-yl}-3-hydroxy-2-phenylpropan-1-one] | 34 nM | 18% |  | 
COc1ccccc1[C@H](CO)C(=O)N1Cc2cn(S(=O)(=O)c3cnn(CC(F)F)c3C)nc2C1 [Compound 104, (2R)-1-{2-[1-(2,2-difluoroethyl)-5-methylpyrazol-4-ylsulfonyl]-4H,6H-pyrrolo[3,4-c]pyrazol-5-yl}-3-hydroxy-2-(2-methoxyphenyl)propan-1-one] | 560 nM | 121% |  | 
O=C([C@H](CO)c1ccccc1F)N1Cc2cn(S(=O)(=O)c3cnn(CCC(F)(F)F)c3)nc2C1 [Compound 58, (S)-2-(2-fluorophenyl)-3-hydroxy-1-(2-((1-(3,3,3-trifluoropropyl)-1H-pyrazol-4-yl)sulfonyl)-2,6-dihydropyrrolo[3,4-c]pyrazol-5(4H)-yl)propan-1-one] |  | 59% |  | 30 nM
O=C(N1Cc2cn(S(=O)(=O)c3ccn(CC(F)F)n3)nc2C1)C1(c2ncccc2Cl)COC1 [Compound 64, 3-chloro-2-(3-{2-[1-(2,2-difluoroethyl)pyrazol-3-ylsulfonyl]-4H,6H-pyrrolo[3,4-c]pyrazole-5-carbonyl}oxetan-3-yl)pyridine] | 12 nM | 100% |  | 
COCCn1ccc(S(=O)(=O)n2cc3c(n2)CN(C(=O)[C@H](CO)c2ccccc2F)C3)n1 [Compound 44, (2S)-2-(2-fluorophenyl)-3-hydroxy-1-[2-[1-(2-methoxyethyl)pyrazol-3-ylsulfonyl]-4H,6H-pyrrolo[3,4-c]pyrazol-5-yl]propan-1-one] | 110 nM | 53% |  | 
